Reference: patent publication US11725036B2, “Modified lipidated relaxin B chain peptides and their therapeutic use” (Sanofi, priority 2018, dated 2023)
Starred links: 1 amine or outer side, 2 acyl side, 3 side chain; linkers in the order of their positions; H or OH if unused. Non-standard residues stand in square brackets, D forms with d. Residues, ends and D or L forms follow the SMILES beside them. Groups on a side chain read outwards from the residue. *: point of attachment. X1 = CCCCCCCCCCCCCCCC(=O)N[C@@H](CCC(=O)N[C@@H](CCC(=O)N[C@@H](CCC(=O)NCCCOCCOCCOCCCNC(=O)CCC(=O)NCCCOCCOCCOCCCNC(=O)CCC(=O)NCCCOCCOCCOCCCN*)C(=O)O)C(=O)O)C(=O)O; γGlu = O=C(O)[C@H](CCC(=O)[*:2])N[*:1]; Palmitoyl = CCCCCCCCCCCCCCCC(=O)*; Suc = O=C(CCC(=O)[*:2])[*:1]; αMeK = C[C@](N)(CCCCN)C(=O)O; AEEA = NCCOCCOCC(=O)O; Aib = CC(C)(N)C(=O)O

Target: T1, RXFP1 (Homo sapiens, UniProt Q9HBX9)
T1 construct: OVCAR5 cells expressing endogenous RXFP1; endogenous in cells; host or cells: OVCAR5
T1 sequence (Q9HBX9 1-757): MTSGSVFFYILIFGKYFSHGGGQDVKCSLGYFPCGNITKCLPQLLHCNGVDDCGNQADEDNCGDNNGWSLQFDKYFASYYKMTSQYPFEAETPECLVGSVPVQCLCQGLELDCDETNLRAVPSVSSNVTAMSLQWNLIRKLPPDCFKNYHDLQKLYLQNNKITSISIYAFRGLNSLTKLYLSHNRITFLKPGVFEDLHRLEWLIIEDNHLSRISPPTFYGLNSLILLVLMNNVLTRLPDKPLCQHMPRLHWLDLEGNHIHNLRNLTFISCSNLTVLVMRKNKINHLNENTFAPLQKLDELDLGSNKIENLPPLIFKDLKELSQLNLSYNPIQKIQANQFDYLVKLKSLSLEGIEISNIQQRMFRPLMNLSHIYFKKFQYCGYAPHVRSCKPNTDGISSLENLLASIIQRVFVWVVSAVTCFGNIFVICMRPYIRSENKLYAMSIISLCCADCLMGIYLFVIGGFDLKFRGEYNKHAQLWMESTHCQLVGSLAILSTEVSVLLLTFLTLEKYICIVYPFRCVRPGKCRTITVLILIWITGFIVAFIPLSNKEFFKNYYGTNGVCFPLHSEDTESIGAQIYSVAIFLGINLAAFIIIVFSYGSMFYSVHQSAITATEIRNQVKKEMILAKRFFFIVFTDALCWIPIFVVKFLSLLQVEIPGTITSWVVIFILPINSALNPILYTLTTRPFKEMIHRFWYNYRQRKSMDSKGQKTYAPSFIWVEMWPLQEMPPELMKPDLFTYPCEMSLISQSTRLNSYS
Test: OVCAR5 cAMP assay (HTRF)
Type: cell-based
Conditions: for EC50: OVCAR 5 cells expressing endogenous RXFP1, cAMP readout; for Emax: OVCAR 5 cells, maximal cAMP relative to H2-relaxin
Method in brief: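 Endogenous RXFP1 in OVCAR5 cells, pretreated 40 min at 37° C with 1 mM IBMX, then exposed to increasing peptide concentrations in serum-free medium for 30 min at 37° C. cAMP read by HTRF; EC50 by variable-slope sigmoidal fit, Emax as % of H2-relaxin maximal cAMP in same run.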

Compound	EC50	Emax
CCCCCCCCCCCCCCCC(=O)N[C@@H](CCC(=O)N[C@@H](CCC(=O)N[C@@H](CCC(=O)NCCCOCCOCCOCCCNC(=O)CCC(=O)NCCCOCCOCCOCCCNC(=O)CCC(=O)NCCCOCCOCCOCCCNC(=O)CCC(=O)NCCCC[C@H](NC(=O)CNC(=O)[C@H](CCC(=O)O)NC(=O)C(C)(C)NC(=O)C(C)(C)NC(=O)[C@@H](NC(=O)[C@H](CCCCNC(C)=O)NC(=O)[C@H](C)NC(=O)[C@H](CCCNC(=N)N)NC(=O)[C@@H](NC(=O)[C@H](CCCCN)NC(=O)[C@H](CCC(=O)O)NC(=O)[C@H](CCCNC(=N)N)NC(=O)CNC(=O)[C@H](CCC(=O)O)NC(=O)[C@H](CC(C)C)NC(C)=O)C(C)C)[C@@H](C)CC)C(=O)N[C@@H](CO)C(=O)N[C@@H](CCCCN)C(=O)N[C@@H](Cc1ccccc1)C(=O)N[C@@H](CO)C(=O)NC(C)(C)C(=O)N[C@@H](CCCNC(=N)N)C(=O)N[C@@H](CCCCN)C(=O)N[C@@H](CCCCNC(C)=O)C(N)=O)C(=O)O)C(=O)O)C(=O)O [compound 79] (Ac-LEGREKVRAK(Ac)I[Aib][Aib]EGK([Suc-X1])SKFS[Aib]RKK(Ac)-NH2)	0.45 nM	95%
CCCCCCCCCCCCCCCC(=O)N[C@@H](CCC(=O)N[C@@H](CCC(=O)N[C@@H](CCC(=O)NCCCOCCOCCOCCCNC(=O)CCC(=O)NCCCOCCOCCOCCCNC(=O)CCC(=O)NCCCOCCOCCOCCCNC(=O)CCC(=O)NCCCC[C@H](NC(=O)CNC(=O)[C@H](CCC(=O)O)NC(=O)C(C)(C)NC(=O)C(C)(C)NC(=O)[C@@H](NC(=O)[C@H](CCCCNC(C)=O)NC(=O)[C@H](C)NC(=O)[C@H](CCCNC(=N)N)NC(=O)[C@@H](NC(=O)[C@H](CCCCN)NC(=O)[C@H](CCC(=O)O)NC(=O)[C@H](CCCNC(=N)N)NC(=O)CNC(=O)[C@H](CCC(=O)O)NC(=O)[C@H](CC(C)C)NC(C)=O)C(C)C)[C@@H](C)CC)C(=O)N[C@@H](CO)C(=O)N[C@H](C(=O)N[C@@H](Cc1c[nH]c2ccccc12)C(=O)N[C@@H](CO)C(=O)N[C@@](C)(CCCCN)C(=O)N[C@@H](CCCNC(=N)N)C(=O)N[C@@H](C)C(=O)N[C@@H](CCCCNC(C)=O)C(N)=O)[C@@H](C)O)C(=O)O)C(=O)O)C(=O)O [compound 11] (Ac-LEGREKVRAK(Ac)I[Aib][Aib]EGK([Suc-X1])STWS[αMeK]RAK(Ac)-NH2)	0.83 nM	93%
CCCCCCCCCCCCCCCC(=O)N[C@@H](CCC(=O)N[C@@H](CCC(=O)N[C@@H](CCC(=O)NCCOCCOCC(=O)NCCOCCOCC(=O)NCCOCCOCC(=O)NCCOCCOCC(=O)NCCCC[C@H](NC(=O)CNC(=O)[C@H](CCC(=O)O)NC(=O)C(C)(C)NC(=O)C(C)(C)NC(=O)[C@@H](NC(=O)[C@H](CCCCNC(C)=O)NC(=O)[C@H](C)NC(=O)[C@H](CCCNC(=N)N)NC(=O)[C@@H](NC(=O)[C@H](CCCCN)NC(=O)[C@H](CCC(=O)O)NC(=O)[C@H](CCCNC(=N)N)NC(=O)CNC(=O)[C@H](CCC(=O)O)NC(=O)[C@H](CC(C)C)NC(C)=O)C(C)C)[C@@H](C)CC)C(=O)N[C@@H](CO)C(=O)N[C@H](C(=O)N[C@@H](Cc1c[nH]c2ccccc12)C(=O)N[C@@H](CO)C(=O)N[C@@](C)(CCCCN)C(=O)N[C@@H](CCCNC(=N)N)C(=O)N[C@@H](C)C(=O)N[C@@H](CCCCNC(C)=O)C(N)=O)[C@@H](C)O)C(=O)O)C(=O)O)C(=O)O [compound 42] (Ac-LEGREKVRAK(Ac)I[Aib][Aib]EGK([AEEA-AEEA-AEEA-AEEA-γGlu-γGlu-γGlu-Palmitoyl])STWS[αMeK]RAK(Ac)-NH2)	1.5 nM	84%
CCCCCCCCCCCCCCCC(=O)N[C@@H](CCC(=O)N[C@@H](CCC(=O)N[C@@H](CCC(=O)NCCOCCOCC(=O)NCCOCCOCC(=O)NCCOCCOCC(=O)NCCCC[C@H](NC(=O)CNC(=O)[C@H](CCC(=O)O)NC(=O)C(C)(C)NC(=O)C(C)(C)NC(=O)[C@@H](NC(=O)[C@H](CCCCNC(C)=O)NC(=O)[C@H](C)NC(=O)[C@H](CCCNC(=N)N)NC(=O)[C@@H](NC(=O)[C@H](CCCCN)NC(=O)[C@H](CCC(=O)O)NC(=O)[C@H](CCCNC(=N)N)NC(=O)CNC(=O)[C@H](CCC(=O)O)NC(=O)[C@H](CC(C)C)NC(C)=O)C(C)C)[C@@H](C)CC)C(=O)N[C@@H](CO)C(=O)N[C@H](C(=O)N[C@@H](Cc1c[nH]c2ccccc12)C(=O)N[C@@H](CO)C(=O)NC(C)(C)C(=O)N[C@@H](CCCNC(=N)N)C(=O)N[C@@H](CCCCN)C(=O)N[C@@H](CCCCNC(C)=O)C(N)=O)[C@@H](C)O)C(=O)O)C(=O)O)C(=O)O [compound 19] (Ac-LEGREKVRAK(Ac)I[Aib][Aib]EGK([AEEA-AEEA-AEEA-γGlu-γGlu-γGlu-Palmitoyl])STWS[Aib]RKK(Ac)-NH2)	11.5 nM	94%
CCCCCCCCCCCCCCCC(=O)N[C@@H](CCC(=O)N[C@@H](CCC(=O)N[C@@H](CCC(=O)NCCCOCCOCCOCCCNC(=O)CCC(=O)NCCCOCCOCCOCCCNC(=O)CCC(=O)NCCCOCCOCCOCCCNC(=O)CCC(=O)NCCCC[C@H](NC(=O)CNC(=O)[C@H](CCC(=O)O)NC(=O)C(C)(C)NC(=O)C(C)(C)NC(=O)[C@@H](NC(=O)[C@H](CCCCNC(C)=O)NC(=O)C(C)(C)NC(=O)[C@H](CCCNC(=N)N)NC(=O)[C@@H](NC(=O)[C@H](CCCNC(=N)N)NC(=O)[C@H](CCC(=O)O)NC(=O)[C@H](CCCNC(=N)N)NC(=O)CNC(=O)[C@H](CCC(=O)O)NC(=O)[C@H](CC(C)C)NC(C)=O)C(C)C)[C@@H](C)CC)C(=O)N[C@@H](CO)C(=O)N[C@H](C(=O)N[C@@H](Cc1c[nH]c2ccccc12)C(=O)N[C@@H](CO)C(=O)NC(C)(C)C(=O)N[C@@H](CCCNC(=N)N)C(=O)N[C@@H](CCCNC(=N)N)C(=O)N[C@@H](CCCCNC(C)=O)C(N)=O)[C@@H](C)O)C(=O)O)C(=O)O)C(=O)O [compound 85] (Ac-LEGRERVR[Aib]K(Ac)I[Aib][Aib]EGK([Suc-X1])STWS[Aib]RRK(Ac)-NH2)	0.3 nM	92%
CCCCCCCCCCCCCCCC(=O)N[C@@H](CCC(=O)N[C@@H](CCC(=O)N[C@@H](CCC(=O)NCCCOCCOCCOCCCNC(=O)CCC(=O)NCCCOCCOCCOCCCNC(=O)CCC(=O)NCCCOCCOCCOCCCNC(=O)CCC(=O)NCCCC[C@H](NC(=O)CNC(=O)[C@H](CCC(=O)O)NC(=O)C(C)(C)NC(=O)C(C)(C)NC(=O)[C@@H](NC(=O)[C@H](CCCCNC(C)=O)NC(=O)C(C)(C)NC(=O)[C@H](CCCNC(=N)N)NC(=O)[C@@H](NC(=O)[C@H](CCCCN)NC(=O)[C@H](CCC(=O)O)NC(=O)[C@H](CCCNC(=N)N)NC(=O)CNC(=O)[C@H](CCC(=O)O)NC(=O)[C@H](CC(C)C)NC(C)=O)C(C)C)[C@@H](C)CC)C(=O)N[C@@H](CO)C(=O)N[C@H](C(=O)N[C@@H](Cc1ccccc1)C(=O)N[C@@H](CO)C(=O)N[C@@](C)(CCCCN)C(=O)N[C@@H](CCCNC(=N)N)C(=O)N[C@@H](C)C(=O)N[C@@H](CCCCNC(C)=O)C(N)=O)[C@@H](C)O)C(=O)O)C(=O)O)C(=O)O [compound 29] (Ac-LEGREKVR[Aib]K(Ac)I[Aib][Aib]EGK([Suc-X1])STFS[αMeK]RAK(Ac)-NH2)	1.6 nM	88%
